Assay results reported in PubChem BioAssay AID1259407 (Chemical Carcinogenesis Research Information System (CCRIS), 2018).
Calls of active or inactive are those of the source. No rule for the calls is given here.

Tested on: CCRIS mutagenicity, Ames/micronucleus/aberration tests
Test: CCRIS mutagenicity studies

With `Oc1cccc2sc3ccccc3c12` as the compound, how does the mutagenic call (Test System: CHINESE HAMSTER OVARY, Strain/Indicator: CHO-K1-BH4 (HGPRT)/6-THIOGUANINE, Metabolic Activation: RAT, LIVER, S-9, AROCLOR (4%)) read?
The mutagenic call was “active; positive”.

With `NCCNc1cccc2ccccc12` as the compound, how does the mutagenic call (Test System: CHINESE HAMSTER OVARY, Strain/Indicator: CHO-K1-BH4 (HGPRT)/6-THIOGUANINE, Metabolic Activation: NONE) read?
Its mutagenic call is “inactive; negative”.

What about the mutagenic call (Test System: CHINESE HAMSTER OVARY, Strain/Indicator: CHO-K1-BH4 (HGPRT)/6-THIOGUANINE, Metabolic Activation: S-9) of the same compound?
Its mutagenic call is “inactive; negative”.

Which mutagenic call (Test System: AMES SALMONELLA TYPHIMURIUM, Strain/Indicator: TA98, Metabolic Activation: NONE, Method: PREINCUBATION (KCL-CONTAINING OR KCL-FREE MEDIA)) does the source give for `c1ccc2c(c1)-c1ccc3ccccc3c1C1NC21` (stereo unspecified) here?
Its mutagenic call is “active; positive”.

And the mutagenic call (Test System: AMES SALMONELLA TYPHIMURIUM, Strain/Indicator: TA100, Metabolic Activation: NONE, Method: PREINCUBATION (KCL-CONTAINING MEDIUM))?
The mutagenic call was “active; positive”.

What about the mutagenic call (Test System: AMES SALMONELLA TYPHIMURIUM, Strain/Indicator: TA100, Metabolic Activation: NONE, Method: PREINCUBATION (KCL-FREE MEDIUM)) of the same compound?
Its mutagenic call is “active; positive”.

Which mutagenic call (End Point: IN VITRO CHROMOSOMAL ABERRATIONS, Test System: CHL CELLS, Metabolic Activation: RAT, LIVER, S-9, SODIUM PHENOBARBITAL AND 5,6-BENZOFLAVONE) does the source give for `O=NN1CN2CN(C1)CN(N=O)C2` here?
The mutagenic call was “active; positive (structural and ploidy changes)”.

And the mutagenic call (Test System: AMES SALMONELLA TYPHIMURIUM, Strain/Indicator: TA98, Metabolic Activation: NONE, Method: PREINCUBATION)?
Its mutagenic call is “inactive; negative”.

And the mutagenic call (Test System: AMES SALMONELLA TYPHIMURIUM, Strain/Indicator: TA98, Metabolic Activation: RAT LIVER S-9, PHENOBARBITAL AND BETA-NAPHTHOFLAVONE, Method: PREINCUBATION)?
The mutagenic call was “inactive; negative”.

What about the mutagenic call (Test System: AMES SALMONELLA TYPHIMURIUM, Strain/Indicator: TA100, Metabolic Activation: NONE, Method: PREINCUBATION) of the same compound?
Its mutagenic call is “active; positive”.

What about the mutagenic call (Test System: AMES SALMONELLA TYPHIMURIUM, Strain/Indicator: TA100, Metabolic Activation: RAT LIVER S-9, PHENOBARBITAL AND BETA-NAPHTHOFLAVONE, Method: PREINCUBATION) of the same compound?
The mutagenic call was “active; positive”.

What about the mutagenic call (Test System: AMES SALMONELLA TYPHIMURIUM, Strain/Indicator: TA1535, Metabolic Activation: NONE, Method: PREINCUBATION) of the same compound?
The mutagenic call was “inactive; negative”.

And the mutagenic call (Test System: AMES SALMONELLA TYPHIMURIUM, Strain/Indicator: TA1535, Metabolic Activation: RAT LIVER S-9, PHENOBARBITAL AND BETA-NAPHTHOFLAVONE, Method: PREINCUBATION)?
The mutagenic call was “inactive; negative”.

And the mutagenic call (Test System: AMES SALMONELLA TYPHIMURIUM, Strain/Indicator: TA1537, Metabolic Activation: NONE, Method: PREINCUBATION)?
The mutagenic call was “inactive; negative”.

And the mutagenic call (Test System: AMES SALMONELLA TYPHIMURIUM, Strain/Indicator: TA1537, Metabolic Activation: RAT LIVER S-9, PHENOBARBITAL AND BETA-NAPHTHOFLAVONE, Method: PREINCUBATION)?
The mutagenic call was “inactive; negative”.

And the mutagenic call (Test System: AMES SALMONELLA TYPHIMURIUM, Strain/Indicator: TA1538, Metabolic Activation: NONE, Method: PREINCUBATION)?
Its mutagenic call is “inactive; negative”.

And the mutagenic call (Test System: AMES SALMONELLA TYPHIMURIUM, Strain/Indicator: TA1538, Metabolic Activation: RAT LIVER S-9, PHENOBARBITAL AND BETA-NAPHTHOFLAVONE, Method: PREINCUBATION)?
Its mutagenic call is “inactive; negative”.

And the mutagenic call (Test System: E.COLI, Strain/Indicator: WP2UVRA, Metabolic Activation: NONE, Method: PREINCUBATION)?
Its mutagenic call is “inactive; negative”.

What about the mutagenic call (Test System: E.COLI, Strain/Indicator: WP2UVRA, Metabolic Activation: RAT LIVER S-9, PHENOBARBITAL AND BETA-NAPHTHOFLAVONE, Method: PREINCUBATION) of the same compound?
The mutagenic call was “active; positive”.

With `C1CCC2=NCCCN2CC1` as the compound, how does the mutagenic call (Test System: Mouse lymphoma, Strain/Indicator: L5178Y (tk+/tk-), Metabolic Activation: None, Method: Suspension/plate) read?
Its mutagenic call is “inactive; negative”.

And the mutagenic call (Test System: Mouse lymphoma, Strain/Indicator: L5178Y (tk+/tk-), Metabolic Activation: Rat, Liver, S-9, Aroclor 1254, Method: Suspension/plate)?
Its mutagenic call is “inactive; negative”.
